# From patent US11986526B2, “Liquid protein formulations containing 4-ethyl-4-methylmorpholinium methylcarbonate (EMMC)” (Eagle Biologics, Inc., priority 2013, dated 2024)
# Where “and” joins values, the source holds several entries; their conditions need not be identical. Identical values can stand only once.
# Columns and labels:
# [1] = test system: aqueous solutions of biosimilar AVASTIN®; experiment: Viscosity of concentrated aqueous solutions of biosimilar AVASTIN with ionic liquids (mVROC microfluidic viscometer); assay type: physicochemical; details: 25° C., pH 7
# Method: (§1) All viscosities of well-mixed aqueous mAb solutions were measured using either a mVROC microfluidic viscometer (RheoSense) or a DV2T cone and plate viscometer (Brookfield; “C & P”) after a 5 minute equilibration at 25 °C (unless otherwise indicated). The mVROC viscometer was equipped with an “A” or “B” chip, each manufactured with a 50 micron channel. Typically, 0.10 mL of protein solution was back-loaded into a gastight microlab instrument syringe (Hamilton; 100 μL), affixed to the chip, and measured at multiple flow rates, approximately 20%, 40%, and 60% of the maximum pressure for each chip. […] An average absolute viscosity and standard deviation was then calculated from at least these three measurements. The C & P viscometer was equipped with a CPE40 or CPE52 spindle (cone angle of 0.8° and 3.0°, respectively) and 0.50 mL samples were measured at multiple shear rates between 2 and 400 s^−1. […] An extrapolated zero-shear viscosity was then determined from a plot of dynamic viscosity versus shear rate for the samples measured on a DV2T cone and plate viscometer. The extrapolated zero-shear viscosities reported are the average and standard deviation of at least three measurements.
# (§2) First, Polysorbate 20 was removed using DETERGENT-OUT® TWEEN Medi Columns (G-Biosciences). […] The dried protein cakes, containing protein and buffer salts or viscosity-reducing ionic liquid, were reconstituted to a final volume of approximately 0.10-1.30 mL. […] Then, an appropriate amount of viscosity-reducing ionic liquid solution (pH 7.0) was added to each aliquot such that upon reconstitution with water, the final excipient concentration was 0.1-0.5 M. The protein solutions were then freeze-dried. The dried protein cakes, containing protein and viscosity-reducing ionic liquid (and a negligible amount of buffer salts) were reconstituted to a final volume of approximately 0.1 mL and viscosity-reducing ionic liquid concentration as indicated in the tables below. The final concentration of mAb in solution was determined by light absorbance at 280 nm using an experimentally determined extinction coefficient of 1.7 L/g·cm and viscosities reported were measured on a RheoSense mVROC microfluidic viscometer.
# [2] = test system: aqueous solutions of TYSABRI®; experiment: Viscosity of concentrated aqueous solutions of TYSABRI with excipients (mVROC microfluidic viscometer); assay type: physicochemical; details: for Viscosity: 25° C., pH 7
# Method: as §1
# The dried protein cakes, containing protein and buffer salts or viscosity-reducing ionic liquid, were reconstituted to a final volume of approximately 0.10-1.30 mL. […] Then, an appropriate amount of viscosity-reducing ionic liquid solution (pH 7.0) was added to each aliquot such that upon reconstitution with water, the final excipient concentration was 0.1-0.5 M. The protein solutions were then freeze-dried. The dried protein cakes, containing protein and viscosity-reducing ionic liquid (and a negligible amount of buffer salts) were reconstituted to a final volume of approximately 0.1 mL and viscosity-reducing ionic liquid concentration as indicated in the tables below. The final concentration of mAb in solution was determined by light absorbance at 280 nm using an experimentally determined extinction coefficient of 1.7 L/g·cm and viscosities reported were measured on a RheoSense mVROC microfluidic viscometer.
# (§3) Viscosities were measured using a RheoSense mVROC microfluidic viscometer equipped with an “A” or “B” chip.
# [3] = test system: aqueous solutions of HERCEPTIN®; experiment: Viscosity of concentrated aqueous solutions of HERCEPTIN with ionic liquids (mVROC microfluidic viscometer); assay type: physicochemical; details: for Viscosity: 25° C., pH 7
# Excerpt: The protein was formulated either with phosphate buffer or with various viscosity-reducing ionic liquids at concentrations in the table listed below.
# [4] = test system: aqueous solutions of biosimilar RITUXAN®; experiment: Viscosity of concentrated aqueous solutions of biosimilar RITUXAN with BIM (mVROC microfluidic viscometer); assay type: physicochemical; details: 25° C., pH 7
# [5] = test system: aqueous solutions of REMICADE®; experiment: Viscosity of concentrated aqueous solutions of REMICADE with and without BIM (mVROC microfluidic viscometer); assay type: physicochemical
# Method: A commercially-obtained biosimilar AVASTIN® containing pharmaceutical excipients (Polysorbate 20, phosphate and citrate buffers, mannitol, and NaCl) was purified. […] For samples containing 4-ethyl-4-methylmorpholinium methyl carbonate (EMMC), protein was thoroughly buffer exchanged into 2 mM PB (pH 7.0). For samples buffer exchanged into 20 mM PB (PB control samples) or 20 mM viscosity-reducing ionic liquid, the collected protein solution was freeze-dried. […] Samples buffer exchanged into 2 mM PB were first aliquoted.
# [6] = test system: aqueous solutions of VECTIBIX®; experiment: Viscosity of concentrated aqueous solutions of VECTIBIX with and without BIM (mVROC microfluidic viscometer); assay type: physicochemical; details: 0.50M BIM, 25° C., pH 7
# [7] = test system: aqueous solutions of biosimilar ERBITUX®; experiment: Viscosity of concentrated aqueous solutions of biosimilar ERBITUX at various BIM concentrations (mVROC microfluidic viscometer); assay type: physicochemical; details: for Viscosity: 25° C., pH 7
# Method: All viscosities of well-mixed aqueous mAb solutions were measured using either a mVROC microfluidic viscometer (RheoSense) or a DV2T cone and plate viscometer (Brookfield; “C & P”) after a 5 minute equilibration at 25 °C (unless otherwise indicated). The mVROC viscometer was equipped with an “A” or “B” chip, each manufactured with a 50 micron channel. Typically, 0.10 mL of protein solution was back-loaded into a gastight microlab instrument syringe (Hamilton; 100 μL), affixed to the chip, and measured at multiple flow rates, approximately 20%, 40%, and 60% of the maximum pressure for each chip. […] An average absolute viscosity and standard deviation was then calculated from at least these three measurements. The C & P viscometer was equipped with a CPE40 or CPE52 spindle (cone angle of 0.8° and 3.0°, respectively) and 0.50 mL samples were measured at multiple shear rates between 2 and 400 s^−1. Specifically, samples were measured for 30 seconds each at 22.58, 24.38, 26.25, 28.13, 30, 31.88, 45, 67.5, 90, 112.5, 135, 157.5, 180, 202.5, 247, 270, 292.5, 315, 337.5, 360, 382, 400 s^−1, starting at a shear rate that gave at least 10% torque, and continuing until instrument torque reached 100%. An extrapolated zero-shear viscosity was then determined from a plot of dynamic viscosity versus shear rate for the samples measured on a DV2T cone and plate viscometer. The extrapolated zero-shear viscosities reported are the average and standard deviation of at least three measurements.
# as §2, §3
# [8] = test system: Sprague-Dawley rats; experiment: Subcutaneous injection toxicity and irritation study (Draize evaluation scores, microscopic examination of injection sites); assay type: in vivo, rat
# Method: Clinical observations were recorded for any pharmaco-toxicological signs at pre-dose, immediately post-dose, at 1 and 4 hours (±15 minutes) post-dose, and daily thereafter. Irritation, if any, at injection sites was scored using the Draize evaluation scores pre-dose, immediately post-dose, at 1 hour (±15 minutes) post dose, and prior to sacrifice.
# [9] = test system: respiratory syncytial virus infection; details: two Phase III clinical trials, pediatric population; cited from earlier work
# [10] = studies evaluating long-term clinical outcomes; cited from earlier work
# [11] = [IL] 0.5 M, [Protein] 230 mg/mL
molecule,measurement,setting,value
4-ethyl-4-methylmorpholinium methylcarbonate [EMMC],Viscosity,"[1]; [IL] 0.4 M, [Protein] 217 mg/mL",38.7 ± 0.3 cP
same,Viscosity reduction,[2]; 0.10 M EMMC,up to 7 fold
same,Viscosity,"[2]; [IL] 0.1 M, [Protein] 232 mg/mL",24.7 ± 0.3 cP
same,Viscosity reduction,[3]; 0.10 M EMMC,~3 fold
same,Viscosity,"[3]; [IL] 0.10 M, [Protein] 253 mg/mL",60.2 ± 4.3 cP
"Cl.N=C(N)NCCC[C@H](N)C(=O)O [Arg HCl, Arginine-HCl, reference compound]",Viscosity,"[2]; [IL] 0.25 M, [Protein] 228 mg/mL",37 ± 0.1 cP
"CCCCn1cc[n+](CCCCS(=O)(=O)[O-])c1 [BIM, 4-(3-butyl-1-imidazolio)-1-butane sulfonate]",Viscosity,"[1]; [IL] 0.2 M, [Protein] 215 mg/mL",61.8 ± 0.3 cP
same,Viscosity,"[1]; [IL] 0.4 M, [Protein] 215 mg/mL",47.3 ± 2.3 cP
same,Viscosity,"[1]; [IL] 0.5 M, [Protein] 215 mg/mL",41.9 ± 0.8 cP
same,Viscosity,"[4]; 0.40M BIM, [Protein] 191 ± 2 mg/mL",43.9 ± 1.6 cP
same,Viscosity,"[4]; 0.40M BIM, [Protein] 203 ± 4 mg/mL",65.4 ± 0.4 cP
same,Viscosity,"[4]; 0.40M BIM, [Protein] 213 ± 4 mg/mL",75.4 ± 1.0 cP
same,Viscosity,"[4]; 0.50M BIM, [Protein] 213 ± 4 mg/mL",83.9 ± 0.8 cP
same,Viscosity,"[2]; [IL] 0.4 M, [Protein] 234 mg/mL",43.6 ± 1.1 cP
same,Viscosity,"[5]; 0.50M BIM, REMICADE ® 222 ± 6 mg/mL, 25° C., pH 7",71.2 ± 2.9 cP
same,Viscosity reduction,"[5]; 0.50 M BIM, maximum over the proteins examined (REMICADE and VECTIBIX)",up to 22 fold
same,Viscosity,[6]; VECTIBIX ® 233 ± 4 mg/mL,51.1 ± 3.7 cP
same,Viscosity,[6]; VECTIBIX ® 291 ± 3 mg/mL,170 ± 2 cP
same,Viscosity,"[3]; [IL] 0.40 M, [Protein] 223 mg/mL",43.8 ± 0.4 cP
same,Viscosity,"[7]; [BIM] 0.4 M, [biosimilar ERBITUX ®] 270 mg/mL",86.7 ± 2.1 cP
same,Viscosity,"[7]; [BIM] 0.5 M, [biosimilar ERBITUX ®] 257 mg/mL",75.0 ± 0.3 cP
same,Viscosity,"[7]; [BIM] 0.75 M, [biosimilar ERBITUX ®] 263 mg/mL",148 ± 2 cP
same,Viscosity,"[7]; [BIM] 1.0 M, [biosimilar ERBITUX ®] 279 mg/mL",145 ± 2 cP
same,Viscosity,"[7]; [BIM] […], [biosimilar ERBITUX ®] 267 mg/mL",347 ± 5 cP
same,Dependence of viscosity-lowering effect on BIM concentration,"[7]; various concentrations of BIM, 0.3-[…]",dose dependent manner up to about 0.50 M
same,Observed consequences of injections compared with saline,"[8]; 0.5 mL of 0.25 M BIM subcutaneously vs phosphate-buffered saline, throughout the study",macroscopically similar
same,Irritation at injection sites,"[8]; 0.5 mL of 0.25 M BIM subcutaneously, 1-3 daily injections",no irritation to slight irritation
same,Edema scores (Draize) at injection sites,"[8]; 0.5 mL of 0.25 M BIM subcutaneously, 1-3 daily injections, various time points",0-2
same,Microscopic examination of injection sites,"[8]; 0.5 mL of 0.25 M BIM subcutaneously, no longer evident by day 4","very minor, clinically insignificant, irritative effect"
"CCCCn1cc[n+](C)c1.CS(=O)(=O)[O-] [BMI Mes, 1-butyl-3-methylimidazolium methanesulfonate]",Viscosity,"[1]; [IL] 0.4 M, [Protein] 214 mg/mL",36.3 ± 0.2 cP
same,Viscosity,"[1]; [IL] 0.4 M, [Protein] 229 mg/mL",69.2 ± 5.2 cP
same,Viscosity,"[1]; [IL] 0.5 M, [Protein] 221 mg/mL",46.5 ± 1.7 cP
same,Viscosity,[1]; [11],82.0 ± 3.0 cP
same,Viscosity,"[2]; [IL] 0.4 M, [Protein] 232 mg/mL",35.2 ± 5.0 cP
same,Viscosity,"[3]; [IL] 0.40 M, [Protein] 227 mg/mL",47.8 ± 1.0 cP
"CCCC[N+]1(C)CCCC1.[Cl-] [BMP Chloride, 1-butyl-1-methylpyrrolidinium chloride]",Viscosity,"[1]; [IL] 0.4 M, [Protein] 227 mg/mL",63.0 ± 8.4 cP
same,Viscosity,[1]; [11],60.8 ± 0.1 cP
same,Viscosity,"[2]; [IL] 0.4 M, [Protein] 249 mg/mL",42.7 ± 1.9 cP
same,Viscosity,"[3]; [IL] 0.40 M, [Protein] 210 mg/mL",55.6 ± 2.0 cP
same,Viscosity,"[3]; [IL] 0.40 M, [Protein] 244 mg/mL",99.2 ± 2.2 cP
palivizumab: humanized mAb against an epitope in the A antigenic site of the F protein of respiratory syncytial virus,Reduction of the risk of hospitalization due to respiratory syncytial virus infection,[9],55% and 45%
vedolizumab: mAb being developed by Millennium Pharmaceuticals for ulcerative colitis and Crohn's disease,Patients achieving clinical remission,[10],~60%
